Assay results published in article PMC2219390 (The Journal of General Physiology, 1996).
Several values for one entry are separate records, joined by “and”; a condition that tells them apart may be missing. Equal entries are not always repeated. Where two headings read alike, the source gives them in different places.

Legend:
[1] = test system: rat brain voltage-dependent sodium channels (BTX-modified); type: biochemical
[2] = Fraction of uncharged molecules at pH 7.4; type: physicochemical
[3] = Fig. 5 A, one channel, +60 mV, low-Kd period

CC[N+](CC)(CC)CC(=O)Nc1c(C)cccc1C [QX-314, lidocaine N-ethyl]
Measured FO2 (fractional time in the high affinity conformation) ([1]; 0.4 mM QX-314, +60 mV, six channels, 3.66 h): 0.655 | Measured FO2 (fractional time in the high affinity conformation) ([1]; 3.0 mM QX-314, +60 mV, two channels, 4.32 h): 0.983 | block of the small subconductance channel state (~6 pS) ([1]; 30 mM lidocaine (0.2 M NaCl) or 0.4 mM QX-314 (0.5 M NaCl), Fig. 7): did not block | koff (amplitude distribution, beta function fit) [1, 3]: 238 s⁻¹ | kon (amplitude distribution, beta function fit) [1, 3]: 896000 M⁻¹ s⁻¹ | koff ([1]; Table I A, symmetrical 0.5 M NaCl, 160mV as printed, channels a, b, c): 238 s⁻¹ and 253 s⁻¹ and 291 s⁻¹ and 256 s⁻¹ | kon rate relative to lidocaine ([1]; low-Kd period, Table I part B): about six times lower

CCN(CC)CC(=O)Nc1c(C)cccc1C [lidocaine]
uncharged molecules [2]: ~ 14%
